According to US20250034161A1, “SPIROCYCLIC COMPOUND AS KRAS-G12C INHIBITOR” (Shanghai Euregen Biopharma Co., Ltd., priority 2020, published 2025):

Legend:
[1] = Whole blood stability assay, dog whole blood; format: in vitro ADME; conditions: 37° C.
Method: • 1. Test purpose: to determine the whole blood stability of the compounds by monitoring the clearance rate of the parent compound after incubation of some of the example compounds of the invention with dog and rat whole blood. • 2. […] Test method:
Then, the stock solution of the test compound was diluted to 1 mmol/L and 0.2 mmol/L with 70% acetonitrile aqueous solution, respectively, as working solution.
The working solution was added to the whole blood. The concentration of each test compound was 5 μmol/L. 90 μL was taken and then mixed evenly with 90 μL of water. Then 600 μL of acetonitrile termination solution containing propranolol as internal standard was added. Incubated at 37° C. in a water bath and shook gently. At 30, 60, 120 and 240 minutes, 90 μL of each mixture was placed on a clean 96-well plate prefilled with 90 μL of water, mixed well, and then 600 μL of acetonitrile termination solution containing propranolol as internal standard was added and centrifuged at 5000 g for 15 min. 80 μL of the supernatant was taken and placed in a 96-well plate preloaded with 160 μL of ultrapure water, then analyzed by LC-MS/MS.

CYP1A2 = molecular target: T1, CYP1A2 (Homo sapiens, UniProt P05177); experiment: CYP inhibition test, human liver microsomes, CYP1A2
T1 sequence (P05177 1-516): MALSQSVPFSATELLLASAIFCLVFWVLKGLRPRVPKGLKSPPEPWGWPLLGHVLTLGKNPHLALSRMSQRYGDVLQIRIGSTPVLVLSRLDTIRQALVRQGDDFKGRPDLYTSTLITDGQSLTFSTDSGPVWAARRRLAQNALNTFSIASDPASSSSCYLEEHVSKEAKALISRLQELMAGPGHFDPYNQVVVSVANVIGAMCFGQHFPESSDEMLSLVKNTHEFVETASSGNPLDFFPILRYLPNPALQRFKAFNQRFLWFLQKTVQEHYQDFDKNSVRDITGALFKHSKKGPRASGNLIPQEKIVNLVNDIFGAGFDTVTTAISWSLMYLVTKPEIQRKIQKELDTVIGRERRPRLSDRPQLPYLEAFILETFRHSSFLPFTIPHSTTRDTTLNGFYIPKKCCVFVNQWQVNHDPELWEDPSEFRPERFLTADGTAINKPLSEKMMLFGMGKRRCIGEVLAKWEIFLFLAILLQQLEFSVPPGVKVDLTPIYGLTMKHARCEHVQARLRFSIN
Method: (§1) • 1. Test purpose: to evaluate the inhibitory ability of some of the example compounds of the present invention against CYP1A2, 2B6, 2C8, 2C9, 2C19, 2D6 and 3A4 via human liver microsomes. • 2. […] Test method:
(§2) • 1. K/Mg buffer: the components were 0.1 mol/L potassium phosphate and 5 mmol/L magnesium chloride with pH 7.4±0.1, preheated. • 2. Solution of the test compound: the test compound was dissolved in dimethyl sulfoxide to prepare a stock solution of 10 mmol/L. 8 μL of 10 mmol/L stock solution was transferred to a 96-well plate containing 12 μL of acetonitrile as the highest concentration point, at 3-fold dilution, for 8 concentrations. • 3. NADPH solution: 66.7 mg of NADPH was dissolved in 10 mL of 0.1 mol/L K/Mg buffer to obtain 8 mmol/L NADPH solution with pH 7.4. • 4. Human liver microsomal stock solution: human liver microsomes were dissolved in 0.1 mol/L K/Mg buffer to obtain 20 mg/mL stock solution. • 5. Human liver microsomal working solution: 10 μL of 20 mg/mL human liver microsomal stock solution was taken and added into 990 μL of 0.1 mol/L K/Mg buffer to prepare 0.2 mg/mL human liver microsomal solution. • 6. […]

CYP 2C9 = CYP 2C9 (Homo sapiens, UniProt P11712); experiment: CYP inhibition test, human liver microsomes, CYP2C9
Method: as §1, §2

CYP 3A4 = CYP 3A4 (Homo sapiens, UniProt P08684); experiment: CYP inhibition test, human liver microsomes, CYP3A4; conditions: IC50(μM)
Method: as §1
• 1. K/Mg buffer: the components were 0.1 mol/L potassium phosphate and 5 mmol/L magnesium chloride with pH 7.4±0.1, preheated. • 2. Solution of the test compound: the test compound was dissolved in dimethyl sulfoxide to prepare a stock solution of 10 mmol/L. 8 μL of 10 mmol/L stock solution was transferred to a 96-well plate containing 12 μL of acetonitrile as the highest concentration point, at 3-fold dilution, for 8 concentrations. • 3. […] Human liver microsomal stock solution: human liver microsomes were dissolved in 0.1 mol/L K/Mg buffer to obtain 20 mg/mL stock solution. • 5. Human liver microsomal working solution: 10 μL of 20 mg/mL human liver microsomal stock solution was taken and added into 990 μL of 0.1 mol/L K/Mg buffer to prepare 0.2 mg/mL human liver microsomal solution. • 6.
600 μL of 0.2 mg/mL human liver microsomal solution and 3 μL of stepwise diluted test compound solution were added to the 96-well plate. 30 μL of the above solution was added on the 96-well plate followed by the addition of 15 μL of the corresponding substrate solution. The 96-well plate and the NADPH solution were pre-incubated at 37° C. for 5 minutes, and 15 μL of NADPH solution was added to the 96-well plate to start the reaction. The assay plate was incubated at 37° C. for 5 minutes for 3A4, 10 minutes for 1A2, 2B6 and 2C9, 20 minutes for 2C8 and 2D6, and 45 minutes for 2C19. Then the reaction was terminated by 180 μL of acetonitrile containing internal standard substance. After quenching, the plate was shook for 10 minutes (600 rpm/min) and then centrifuged at 6000 rpm for 15 minutes. 80 μL of supernatant was taken from each well and transferred to a 96-well sample plate containing 120 μL of ultrapure water for LC-MS/MS analysis.

[2] = CYP 3 A4-M, substrate midazolam
[3] = CYP 3 A4-T, substrate testosterone

Chain of CYP 3A4 (P08684 whole entry): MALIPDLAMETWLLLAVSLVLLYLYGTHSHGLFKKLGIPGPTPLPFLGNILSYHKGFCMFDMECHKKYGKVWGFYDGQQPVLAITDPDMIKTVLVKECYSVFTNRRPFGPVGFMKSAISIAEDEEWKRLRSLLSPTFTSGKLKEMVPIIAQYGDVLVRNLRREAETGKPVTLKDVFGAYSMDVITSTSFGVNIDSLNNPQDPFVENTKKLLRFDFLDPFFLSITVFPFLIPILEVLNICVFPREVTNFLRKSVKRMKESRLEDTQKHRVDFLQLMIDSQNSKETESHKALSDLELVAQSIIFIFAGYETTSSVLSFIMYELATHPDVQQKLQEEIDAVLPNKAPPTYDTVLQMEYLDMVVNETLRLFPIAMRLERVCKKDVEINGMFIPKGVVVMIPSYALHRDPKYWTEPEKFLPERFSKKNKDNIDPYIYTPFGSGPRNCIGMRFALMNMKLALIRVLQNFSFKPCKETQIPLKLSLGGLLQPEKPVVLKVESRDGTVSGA
Chain of CYP 2C9 (P11712 whole entry): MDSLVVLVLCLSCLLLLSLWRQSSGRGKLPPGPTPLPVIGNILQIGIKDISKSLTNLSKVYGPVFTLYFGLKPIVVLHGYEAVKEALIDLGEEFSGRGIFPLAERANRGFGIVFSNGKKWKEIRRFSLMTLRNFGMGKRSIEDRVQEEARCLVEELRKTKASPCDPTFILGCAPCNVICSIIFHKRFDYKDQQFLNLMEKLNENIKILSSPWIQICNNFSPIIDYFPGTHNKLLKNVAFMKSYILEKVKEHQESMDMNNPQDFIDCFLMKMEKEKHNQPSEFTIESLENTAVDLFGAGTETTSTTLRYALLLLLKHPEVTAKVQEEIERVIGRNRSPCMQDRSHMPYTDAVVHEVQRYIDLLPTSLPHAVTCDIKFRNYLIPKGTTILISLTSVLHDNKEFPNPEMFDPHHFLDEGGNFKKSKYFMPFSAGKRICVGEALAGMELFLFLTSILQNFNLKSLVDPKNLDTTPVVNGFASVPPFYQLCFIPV

Row | SMILES | half-life at 5 μmol/L [1] | IC50 (CYP1A2) | IC50 (CYP 2C9) | IC50 (CYP 3A4; [2]) | IC50 (CYP 3A4; [3])
1 | C=CC(=O)N1CCN(c2nc(=O)n(-c3c(C)ccnc3C(C)C)c3nc(-c4c(O)cccc4F)c(F)cc23)[C@@H](C)C1 [AMG510] | 1.46 h | > 10 µM | > 10 µM | 5.07 µM | > 10 µM
2 | C=C(F)C(=O)N1CCN(c2nc(OC[C@@H]3CCCN3C)nc3c2CCN(c2cccc4cccc(Cl)c24)C3)C[C@@H]1CC#N [MRTX849] | 6.15 h | > 10 µM | 1.35 µM | 6.83 µM | > 10 µM
